Patent US20090270391A1, “THIENOPYRIDINE DERIVATIVE, OR QUINOLINE DERIVATIVE, OR QUINAZOLINE DERIVATIVE, HAVING c-MET AUTOPHOSPHORYLATION INHIBITING POTENCY” (Kirin Pharma Kabushiki Kaisha, priority 2005, published 2009)

What was measured:
c-Met [1] = target: T1, c-Met (Homo sapiens, UniProt P08581); test: c-Met enzyme inhibitory activity (32P-ATP, SDS-PAGE); assay type: biochemical; parameters: purchased upstate 14-526
Protocol: (§1) c-Met protein (upstate, Lot: 25735AU, catalog code 14-526) was diluted with EDB (20 mM MOPS (pH 7.0), 1 mM EDTA, 0.01% Brij 35, 5% glycerol, 0.1% β-mercaptoethanol, and 1 mg/ml BSA) to 10 ng/μl. The KDR protein (812-1346AA) was prepared from SF21 insect cells (affinity purification, 12.4 μg/μl) according to the protocol of Invitrogen (Bac to Bac (tradename) baculovirus expression system) and was diluted with EDB to 248 ng/μl. A five-fold concentration of a reaction buffer (40 mM MOPS (pH 7.4), 1 mM EDTA) (5 μl), a ten-fold concentration of compound A (5 μl), 250 mM MnCl2 (2.5 μl), sterilized distilled water (2.5 μl), c-Met protein or KDR protein (5 μl) was mixed thereinto under ice cooling. An ATP reaction solution (25 mM ATP, 10 μci/μl γ-^32P-ATP (1 μl), 25 mM Mg (OAc)2, and 1.25 mM Hepes (pH7.4)) (10 μl) was added, and the mixture was allowed to react at 37° C. for 10 min. A tris-SDS β-ME sample treatment liquid (301780, Daiichi Kagaku Inc.) (10 μl) was added to stop the reaction. The reaction solution was boiled at 95° C. for 5 min and was then subjected to SDS-PAGE. The gel after the migration was packed, and an imaging plate (Fuji Film) was applied to the gel for transfer, followed by analysis with Typhoon (Amersham Biosciences). The IC50 value was calculated with a software for analysis Graph Pad Prism Ver.4 (Graph Pad Software, Inc.).
Target sequence in this assay (P08581 974-1390 limits assumed): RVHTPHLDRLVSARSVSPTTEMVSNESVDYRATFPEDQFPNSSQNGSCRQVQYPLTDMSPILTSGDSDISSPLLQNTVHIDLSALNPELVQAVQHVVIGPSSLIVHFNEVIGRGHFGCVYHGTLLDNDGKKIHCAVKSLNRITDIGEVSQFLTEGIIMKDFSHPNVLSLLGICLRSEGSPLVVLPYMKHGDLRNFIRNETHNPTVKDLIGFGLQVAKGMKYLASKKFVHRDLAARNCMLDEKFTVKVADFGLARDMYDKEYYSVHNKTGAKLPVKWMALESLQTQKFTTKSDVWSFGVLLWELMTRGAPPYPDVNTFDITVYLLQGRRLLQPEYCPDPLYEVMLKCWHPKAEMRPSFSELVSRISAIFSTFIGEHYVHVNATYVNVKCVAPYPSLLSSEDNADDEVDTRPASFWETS

KDR [2] = target: T2, KDR (Homo sapiens, UniProt P35968); test: KDR autophosphorylation inhibition in HUVEC, VEGF stimulated; assay type: cell-based; parameters: endogenous in cells; host or cells: HUVEC; conditions: 50 ng/ml VEGF
From the text: (§2) MKN45 (human poorly differentiated gastric cancer cell line, Riken) and A431 (human epithelioid cancer cell line, JCRB) were used for the measurement of c-Met autophosphorylation inhibition, and HUVEC (human vascular endothelial cells, KURABO INDUSTRIES LTD.) was used for the measurement of KDR autophosphorylation inhibitory activity.
HUVEC was inoculated into an EGM medium (KURABO INDUSTRIES LTD.) so that the number of cells was 2×10^6/100-mm Petri dish (Collagen coated Dish, 4020-010, IWAKI), and, 24 hr after the inoculation, the EGM medium was replace with an EBM medium containing 0.5% fetal calf serum (KURABO INDUSTRIES LTD.). Compound A was added, and the mixture was incubated for 90 min. After stimulation with 50 ng/ml of VEGF (100-20, PeproTech, Inc.) for 5 min, the culture was removed. The residue was subjected to immunoprecipitation with a KDR antibody (Flk-1, C-1158, Santa Cruz) by the above c-Met autophosphorylation inhibitory activity measuring method, followed by SDS-PAGE to measure KDR autophosphorylation inhibitory activity.
Target sequence in this assay (P35968 20-1356): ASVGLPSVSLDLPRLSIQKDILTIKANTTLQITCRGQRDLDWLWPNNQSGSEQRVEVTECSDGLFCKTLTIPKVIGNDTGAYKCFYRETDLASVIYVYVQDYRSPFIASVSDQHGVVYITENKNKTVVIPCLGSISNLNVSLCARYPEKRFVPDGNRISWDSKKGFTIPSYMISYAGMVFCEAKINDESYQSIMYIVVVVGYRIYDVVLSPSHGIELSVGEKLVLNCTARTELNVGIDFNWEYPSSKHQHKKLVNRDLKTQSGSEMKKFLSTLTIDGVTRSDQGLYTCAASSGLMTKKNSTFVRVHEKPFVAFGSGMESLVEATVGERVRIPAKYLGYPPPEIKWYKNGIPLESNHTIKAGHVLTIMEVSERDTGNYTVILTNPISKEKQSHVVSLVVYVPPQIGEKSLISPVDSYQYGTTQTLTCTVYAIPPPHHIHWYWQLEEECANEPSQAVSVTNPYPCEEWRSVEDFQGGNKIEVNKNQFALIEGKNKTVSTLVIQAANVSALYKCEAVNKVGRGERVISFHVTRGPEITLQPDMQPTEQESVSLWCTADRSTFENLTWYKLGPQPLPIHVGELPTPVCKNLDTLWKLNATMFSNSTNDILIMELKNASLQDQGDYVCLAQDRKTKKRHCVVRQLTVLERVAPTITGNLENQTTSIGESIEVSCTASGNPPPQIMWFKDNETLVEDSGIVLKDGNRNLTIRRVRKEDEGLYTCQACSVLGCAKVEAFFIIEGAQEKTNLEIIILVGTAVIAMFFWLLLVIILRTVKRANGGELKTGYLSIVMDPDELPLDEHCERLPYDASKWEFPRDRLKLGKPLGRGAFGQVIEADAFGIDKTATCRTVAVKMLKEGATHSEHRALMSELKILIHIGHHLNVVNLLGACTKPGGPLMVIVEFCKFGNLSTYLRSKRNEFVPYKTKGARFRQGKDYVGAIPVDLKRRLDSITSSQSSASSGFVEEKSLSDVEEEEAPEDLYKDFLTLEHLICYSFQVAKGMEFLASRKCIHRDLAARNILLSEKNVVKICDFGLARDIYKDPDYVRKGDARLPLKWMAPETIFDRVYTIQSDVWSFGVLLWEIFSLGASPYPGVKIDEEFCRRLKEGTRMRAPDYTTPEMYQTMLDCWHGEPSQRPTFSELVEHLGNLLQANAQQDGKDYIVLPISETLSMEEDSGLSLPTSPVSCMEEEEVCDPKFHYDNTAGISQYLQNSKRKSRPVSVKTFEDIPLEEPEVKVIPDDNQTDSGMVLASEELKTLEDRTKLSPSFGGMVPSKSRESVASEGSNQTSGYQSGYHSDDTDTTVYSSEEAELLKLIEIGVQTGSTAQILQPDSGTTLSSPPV

KDR [3] = target: T2, KDR; test: KDR autophosphorylation inhibitory activity (general statement)
Target sequence in this assay (P35968 20-1356): as above

[4] = tested on: Human gastric cancer cell line NU-GC-4; test: Tumor growth inhibitory activity against human gastric cancer cell line NU-GC-4 in nude mice; assay type: in vivo; conditions: 25 mg/kg oral once a day, 10th day
Protocol: Human gastric cancer cell line NU-GC-4 (available from Cell Resource Center for Biomedical Research, Institute of Development Aging and Cancer, Tohoku University) is transplanted into nude mice. When the tumor volume becomes about 100 mm^3, the mice are grouped so that the groups each consist of four mice and have an even average tumor volume. The test compound suspended in 0.5% methylcellulose is orally administered once a day for 9 days.
Only 0.5% methylcellulose is administered to the control group in the same manner as in the test groups. The tumor growth inhibition rate (TGIR) is calculated as follows: The tumor growth inhibition rate (TGIR)=(1−TX/CX)×100 wherein CX represents the volume of tumor at day X for the control group and TX represents the volume of tumor for test compound administration groups, when the tumor volume at the day of the start of the administration is presumed to be 1.

[5] = tested on: mouse lower limb bone growth plate; test: Influence on mouse lower limb bone growth plate; assay type: in vivo; conditions: nude mice, 50 mg/kg oral once a day for 4 weeks
Protocol: Nude mice (BALB-nu/nu, female, four weeks old, Charles River Japan, Inc.) were preliminarily raised for one week, and the mice were grouped so that each group consisted of 8 mice. Compound A (50 mg/kg) suspended in 0.5% methylcellulose was orally administered once a day for 4 weeks to the compound A group. On the other hand, 0.5% methylcellulose was administered to the control group in the same manner as in the compound A group.
On the 29th day after the initiation of the administration, the animals were killed from ether anesthesia. A lower limb bone around the knee region was removed, was fixed in buffer formalin, was deashed and was then subjected to paraffin embedding. A thin sliced sample was dyed with HE, and the knee bone was photographed, and whether or not thickening of the bone growth plate occurs was quantitatively determined with an image analysis software (WinROOF Ver5, MITANI CORPORATION).

c-Met [6] = target: T1, c-Met; test: c-Met autophosphorylation inhibition in culture cells A431, HGF stimulated (immunoprecipitation/blot); assay type: cell-based; parameters: endogenous in cells; conditions: 50 ng/ml HGF
From the text: as §2
(§3) MKN45 (2.5×10^5/well) or A431 (8.5×10^5/well) was inoculated into wells, containing RPMI (GIBCO) containing 0.1% fetal calf serum (JRH Biosciences), in a 6-well plate (Collagen Type I coated Plate, 4810-010, IWAKI), and, 24 hr after the inoculation, the medium was replaced with an RPMI medium containing 0.10% fetal calf serum. Thereafter, compound A was added, followed by incubation for 90 min under conditions of 37° C. and 5% CO2. The culture was removed without stimulation for MKN45 and after stimulation for 10 min with 50 ng/ml HGF (294-HG, R&D SYSTEMS) for A431. A solubilizing buffer solution (20 mM HEPES (pH 7.4), 150 mM NaCl, 0.2% TritonX-100, […], 5 mM sodium orthovanadylate, 5 mM disodium ethylenediaminetetraacetate, and 2 mM Na4P2O7) (500 μl/well) was added to satisfactorily solubilize the cells. […] The film was quantified by Scion Image, and the IC50 value was determined with an analysis software Graph Pad Prism Ver.4 (Graph Pad Software, Inc.).
Target sequence in this assay (P08581 25-1390): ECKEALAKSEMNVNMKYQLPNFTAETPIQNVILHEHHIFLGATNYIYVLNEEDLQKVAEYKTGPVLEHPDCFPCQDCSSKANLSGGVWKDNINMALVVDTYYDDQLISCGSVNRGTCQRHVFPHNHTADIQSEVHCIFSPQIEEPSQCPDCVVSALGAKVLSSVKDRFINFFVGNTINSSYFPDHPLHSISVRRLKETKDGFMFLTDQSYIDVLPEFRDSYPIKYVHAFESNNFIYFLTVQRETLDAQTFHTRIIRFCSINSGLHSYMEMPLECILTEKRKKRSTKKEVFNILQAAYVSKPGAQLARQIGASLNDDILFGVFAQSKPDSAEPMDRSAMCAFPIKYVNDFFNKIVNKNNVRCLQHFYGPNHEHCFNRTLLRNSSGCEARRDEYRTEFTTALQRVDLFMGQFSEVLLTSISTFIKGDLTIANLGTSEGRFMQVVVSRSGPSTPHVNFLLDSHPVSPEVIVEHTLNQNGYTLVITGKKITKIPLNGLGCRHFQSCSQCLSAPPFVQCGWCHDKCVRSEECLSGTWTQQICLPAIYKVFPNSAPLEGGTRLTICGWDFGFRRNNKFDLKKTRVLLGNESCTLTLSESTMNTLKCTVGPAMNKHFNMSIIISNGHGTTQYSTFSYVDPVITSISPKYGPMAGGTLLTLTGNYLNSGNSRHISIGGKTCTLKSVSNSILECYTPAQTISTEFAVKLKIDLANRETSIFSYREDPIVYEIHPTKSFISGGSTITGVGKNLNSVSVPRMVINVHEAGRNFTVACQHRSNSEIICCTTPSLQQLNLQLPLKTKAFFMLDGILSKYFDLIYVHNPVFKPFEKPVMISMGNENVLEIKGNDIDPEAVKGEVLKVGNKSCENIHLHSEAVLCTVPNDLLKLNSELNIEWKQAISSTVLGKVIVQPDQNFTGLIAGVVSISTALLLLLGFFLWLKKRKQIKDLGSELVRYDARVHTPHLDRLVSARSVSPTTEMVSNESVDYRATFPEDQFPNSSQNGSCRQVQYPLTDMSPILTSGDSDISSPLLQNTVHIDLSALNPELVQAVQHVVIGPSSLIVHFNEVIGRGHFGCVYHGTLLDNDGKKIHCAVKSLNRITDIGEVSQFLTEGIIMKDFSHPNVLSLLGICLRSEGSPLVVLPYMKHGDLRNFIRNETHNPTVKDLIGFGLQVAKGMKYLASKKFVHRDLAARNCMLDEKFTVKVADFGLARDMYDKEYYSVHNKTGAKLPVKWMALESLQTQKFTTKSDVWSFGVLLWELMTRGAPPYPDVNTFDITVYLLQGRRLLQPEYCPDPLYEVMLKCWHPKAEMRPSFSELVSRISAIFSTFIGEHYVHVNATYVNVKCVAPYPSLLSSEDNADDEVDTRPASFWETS

c-Met [7] = target: T1, c-Met; test: c-Met autophosphorylation inhibition in culture cells MKN45 (immunoprecipitation/blot); assay type: cell-based; parameters: endogenous in cells; host or cells: MKN45
From the text: as §2, §3
Target sequence in this assay (P08581 25-1390): as above

c-Met [8] = target: T1, c-Met; test: c-Met autophosphorylation inhibitory activity (general statement)
Target sequence in this assay (P08581 25-1390): as above

[9] = Human liver microsome test; assay type: in vitro ADME; conditions: data not shown
KDR [10] = target: T2, KDR; test: KDR enzyme inhibitory activity (32P-ATP, SDS-PAGE); assay type: biochemical; parameters: The KDR protein (812-1346AA) was prepared from SF21 insect cells; made in house; host or cells: SF21 insect cells (Bac to Bac baculovirus system)
Protocol: as §1
Target sequence in this assay (P35968 812-1346): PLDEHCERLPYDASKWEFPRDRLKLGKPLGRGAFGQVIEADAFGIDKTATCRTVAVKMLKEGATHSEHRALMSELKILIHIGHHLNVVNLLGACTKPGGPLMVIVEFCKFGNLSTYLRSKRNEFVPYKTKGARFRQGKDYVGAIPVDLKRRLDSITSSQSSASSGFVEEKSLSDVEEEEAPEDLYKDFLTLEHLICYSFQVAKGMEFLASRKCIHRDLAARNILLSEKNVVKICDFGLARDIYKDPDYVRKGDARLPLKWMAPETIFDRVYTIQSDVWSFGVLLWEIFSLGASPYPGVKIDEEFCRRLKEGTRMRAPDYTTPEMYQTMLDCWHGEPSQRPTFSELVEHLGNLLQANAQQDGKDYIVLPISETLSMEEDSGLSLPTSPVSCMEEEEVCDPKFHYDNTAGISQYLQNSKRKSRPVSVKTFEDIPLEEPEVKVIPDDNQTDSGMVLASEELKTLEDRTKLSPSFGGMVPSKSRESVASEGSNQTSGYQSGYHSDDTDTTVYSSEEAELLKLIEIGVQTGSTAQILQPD

IC50 (c-Met [1]): 15.5 nM
IC50 (KDR [2]): ≥ 1000 nM
KDR autophosphorylation inhibitory activity (KDR [3]): low
bone growth plate area ([5]; versus control group): no significant difference
IC50 (c-Met [6]): 9.3 nM
IC50 (c-Met [7]; c-Met (MKN45), without stimulation): 11.3 nM
c-Met/KDR selectivity (c-Met [7]; c-Met versus KDR autophosphorylation in culture cells): high
c-Met autophosphorylation inhibitory activity (c-Met [8]): high
metabolic rate [9]: proper metabolic rate
IC50 (KDR [10]): ≥ 1000 nM
Structure (SMILES): COc1cc(Oc2ccnc3cc(OC)c(OC)cc23)ccc1NC(=S)NC(=O)Cc1ccc(F)cc1 [Compound A, N-[4-{(6,7-dimethoxy-4-quinolyl)oxy}-2-methoxyphenyl]-N′-[2-(4-fluorophenyl)acetyl]thiourea]
TGIR (tumor growth inhibition rate) [4]: 78%
thickening of the bone growth plate [5]: did not induce the thickening of the bone growth plate
